Earlier results as cited in patent US10028918B2, “Nanoparticle delivery vehicle for S-nitroso-N-acetyl cysteine and uses thereof” (ALBERT EINSTEIN COLLEGE OF MEDICINE, INC., priority 2012, dated 2018).

System: rats
Conditions: normal and acute hypertension induced rats

## CC(=O)N[C@@H](CSN=O)C(=O)O [NAC-SNO, S-nitroso-N-acetyl cysteine]
  Duration of vascular effect: ~9 min
